These results are taken from US20240207253A1, “Inhibitors of CDR1 for Reversal of Azole Drug Resistance in Fungal Infections” (UNM RAINFOREST INNOVATIONS, priority 2021, published 2024).

The test system of one test is C. albicans strain 5674. The test can be described thus: Adenylate kinase (AK) release assay on assay supernatant. It is filed as cell-based. The conditions noted are these: caspofungin 50 ng/ml, positive control.
Test [1] concerns C. glabrata AR Bank #0314. The experiment in a line: CLSI microbroth dilution checkerboard assay with fluconazole. Format: cell-based. The conditions noted are these: Nakaseomyces glabratus; fluconazole alone. As to the method:
(§1) Overexpression of Cdr1p has been implicated in azole resistance in many fluconazole-resistant fungal pathogens. […] The inventors used the CLSI microbroth dilution method of antifungal susceptibility testing in a checkerboard assay format, where serial 2-fold dilutions of FLC (from 64 μg/ml) were tested in combination with serial 2-fold dilutions of a candidate hit compound (from 50 μg/ml). […] The data from three biological replicates was next used to assess synergy between each compound of interest and FLC. For these purposes, the inventors used the program SynScreen, which extrapolates non-linear fits of dose-response data to determine synergy using the Bliss independence and Loewe additivity analysis models. […] The Bliss Beta coefficient that the program calculates for all combinations further describes potential synergism (if >1), antagonism (if <1), or an additive effect (equal to 1).
(§2) For the purposes of reporting the effect of the test compound on FLC potentiation, the inventors excluded from analyses rows of combinations where TPIML compound alone affects yeast growth. C. krusei are intrinsically resistant to azoles and is predominantly due to a significant reduction of inhibition of the target, cytochrome P450 lanosterol 14α-demethylase, though the role of increased expression of the CaCdr1p homolog in resistance has also been described.
Background: Dilution methods test growth across graded concentrations, often in twofold steps.

In test [2] the test system is C. krusei reference strain, ATCC 6258. The description is as above. The following applies: Pichia kudriavzevii, ATCC6258; fluconazole alone. It is filed as cell-based. On the procedure: as §1, §2
The test system of test [3] is C. parapsilosis AR Bank #0337. The test is described as above. Format: cell-based. The conditions noted are these: Lodderomyces parapsilosis; fluconazole alone. As to the method: as §1, §2
The subject of a further test is Cdr1p-GFP. The experiment in a line: Cdr1p-GFP whole cell fluorescence-based flow cytometry assay (primary screen and dose response). More on the design: species or system C. albicans. The conditions noted are these: 10 μM, positive control, isolate 5674 CDR1-GFP.

Method for C. albicans strain 5674: In addition to the output from the dose-response assays, we included an experimental step designed to identify compounds with fungicidal potential. Specifically, the inventors used the assay supernatant to interrogate for the presence of adenylate kinase (AK), an enzyme that is released from the cells when the cell wall or plasma membrane integrity is compromised. Low-dose caspofungin (50 ng/ml), an echinocandin known for its antifungal property due to disruption of the cell wall, was used as a positive control.
From the text for Cdr1p-GFP: Utilizing the novel approach of inhibition of CDR1 (Cdr1p) expression, initial experiments were directed to screening libraries of small molecules using a high-throughput whole cell fluorescence-based flow cytometry assay to identify agents that inhibit expression of CDR1-GFP in an azole-resistant C. albicans strain.
Each sample in the scaffold ranking screen contains only mixtures of compounds with the shared core scaffold. All compounds in a specific mixture are represented in approximately equal molar concentrations. The inventors performed the screen using the C. albicans azole-resistant, clinical isolate 5674, which was modified to carry a CDR1 allele tagged with GFP-encoding sequence. Modulation of Cdr1p-GFP levels in response to scaffold mixtures was assessed relative to basal levels (Response Ratio), from which scaffolds were ranked. […] The inventors used tacrolimus at 10 μM concentration as positive control in all screening assays.
The assay readout, GFP fluorescence levels as detected by a flow cytometer, is directly related to the levels of Cdr1p of the cell. Thus, flow cytometry data from each screen provides direct evidence that Cdr1p is modulated by hit compounds. […] False-positive hits were identified in follow-up dose-response assays where the effect of serial dilutions of each compound on Cdr1p-GFP levels was assessed.

`CC[C@H](C)C[C@H](C)CCCCCCCCC(=O)N[C@H]1C[C@@H](O)[C@@H](NCCN)NC(=O)[C@@H]2[C@@H](O)CCN2C(=O)[C@H]([C@H](O)CCN)NC(=O)[C@H]([C@H](O)[C@@H](O)c2ccc(O)cc2)NC(=O)[C@@H]2C[C@@H](O)CN2C(=O)[C@H]([C@@H](C)O)NC1=O` [caspofungin] had an AK fold-increase in the test on C. albicans strain 5674 of 27. Take `OC(Cn1cncn1)(Cn1cncn1)c1ccc(F)cc1F` [fluconazole]: the results for the MIC50 in test [1], in test [2] and in test [3] were 64 µg/mL, 8 µg/mL and 64 µg/mL, respectively. As to `C=CC[C@@H]1/C=C(\C)C[C@H](C)C[C@H](OC)[C@H]2O[C@@](O)(C(=O)C(=O)N3CCCC[C@H]3C(=O)O[C@H](/C(C)=C/[C@@H]3CC[C@@H](O)[C@H](OC)C3)[C@H](C)[C@@H](O)CC1=O)[C@H](C)C[C@@H]2OC` [tacrolimus], the “Response Ratio (Cdr1p-GFP levels relative to basal levels)” value in the test on Cdr1p-GFP is recorded as 0.8.
